Like-named read-outs stand apart in the source and are kept apart here.
Columns and labels:
NCI-H929 cells = experiment: Antiproliferative activity against various tumor cells: NCI-H929; assay type: cell-based; details: Homo sapiens, read-out: Antiproliferative activity IC50 NCI-H929
Description: (§1) U937, NCI-H929, AML-2, and MOLM-13 cells in the logarithmic growth phase were diluted in media RPMI+10% FBS, RPMI+10% FBS, MEMα+20% FBS, RPMI+20% FBS, respectively, and plated at 4,000 cells/well in 96-well whole black plates (WHB) with 50 μL/well. After plating, the plates were incubated in an incubator at 5% CO2 and 37° C. for 24 h before the compounds were added. The compounds were prepared into a 10 mM stock solution in DMSO and diluted in a culture medium to the desired concentrations (a final DMSO concentration of 0.2%). […] The plates were incubated at 5% CO2 and 37° C. for 72 h. After the incubation was complete, the plates were equilibrated at room temperature for 30 min. CellTiter-Glo® Reagent (Promega G7573) was added at 100 μL/well. The plates were shaken for 12 min on a microplate shaker. The luminescence value was measured at room temperature by the GloMax navigator (Promega GM2010).

IKZF1 = target: T1, IKZF1 (Homo sapiens, UniProt Q13422); experiment: Degradation of IKZF1 protein in HL-60 cells (Western blot); assay type: cell-based; details: 4 h
T1 construct: The whole cell lysate was prepared using a RIPA lysis buffer; endogenous in cells; host or cells: HL-60 cells
Description: (§2) […] of DMSO and the compounds were added, and the mixture was incubated in an incubator at 5% CO2 and 37° C. for 4 h. The cells were centrifuged, and the culture medium was discarded. PBS was added for washing and then discarded. The whole cell lysate was prepared using a RIPA lysis buffer containing a protease inhibitor cocktail and a phosphatase inhibitor, and incubated on ice for 30 min. The mixture was centrifuged, and the cell debris was discarded. The whole cell lysate supernatant was collected and transferred to a fresh EP tube. Samples were prepared using a loading buffer after a BCA protein assay. The samples were incubated in a metal bath at 100° C. for 10 min. The samples were electrophoretically separated from proteins on a 4-20% precast gel (SDS-PAGE gel), transferred to a PVDF membrane, blocked with 5% NFDM/TBST for 1 h at room temperature, co-incubated overnight at 4° C. with the primary antibody, and co-incubated for 2 h at room temperature with the secondary antibody on the next day. The signals were detected on the […]™ imaging system.

IKZF3 = target: T2, IKZF3 (Homo sapiens, UniProt Q9UKT9); experiment: Degradation of IKZF3 protein in HL-60 cells (Western blot); assay type: cell-based; details: 4 h
T2 construct: The whole cell lysate was prepared using a RIPA lysis buffer; endogenous in cells; host or cells: HL-60 cells
Description: as §2

MV-4-11 cells = experiment: Antiproliferative activity against MV-4-11 cells (CellTiter-Glo, 72 h); assay type: cell-based; details: Homo sapiens
Summary of the method: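 MV-4-11 cells in RPMI + 10% FBS plated at 5,000 cells/well and pre-incubated 24 h at 37 °C, 5% CO2. Compounds were then added (final DMSO 0.2%) and cells incubated 72 h. Viability was read by CellTiter-Glo luminescence after 30 min equilibration at room temperature.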

MOLM-13 cells = experiment: Antiproliferative activity against various tumor cells: MOLM-13; assay type: cell-based; details: Homo sapiens, read-out: Antiproliferative activity IC50 MOLM-13
Description: as §1

U937 cells = experiment: Antiproliferative activity against various tumor cells: U937; assay type: cell-based; details: Homo sapiens, read-out: Antiproliferative activity IC50 U937
Description: as §1

AML-2 cells = experiment: Antiproliferative activity against various tumor cells: AML-2; assay type: cell-based; details: 72 h, read-out: Antiproliferative activity IC50 AML-2
Description: as §1

MV-4-11-Luc xenograft = experiment: Efficacy in acute myeloid leukemia MV-4-11-luc xenograft mouse model; assay type: in vivo; details: 10 mg/kg orally twice daily, NSG mice
Source text: In an in vivo efficacy study, female immunocompromised NSG mice aged 6 to 8 weeks were used and the experimental procedures started after the animals were acclimatized in the experimental environment for 7 days. The animals were housed in SPF animal rooms in individually ventilated cages (IVCs) each containing 6 mice. Human acute myeloid leukemia MV-4-11 cells expressing luciferase (MV-4-11-luc) were grafted into mice by tail vein injection (5×10^6 cells/mouse). Seven days after the cell grafting, the mice were subjected to imaging on the IVIS Lumina III small animal imaging system for grouping and administration, and tumor-bearing mice were randomized to the vehicle control group or treatment groups (6 mice/group). The compound (10 mg/kg, twice daily) was administered to the animals in each treatment group by oral gavage. The body weight was measured daily, while mean luminescence was measured after the start of treatment with the compounds or vehicle.
Indicators: The indicators were to investigate whether the tumor growth was inhibited or delayed or the tumor was cured. The tumor size was measured twice weekly using the IVIS Lumina III small animal imaging system. The tumor signals were determined by exposure photons per second. The anti-tumor efficacy of the compounds was evaluated by the tumor proliferation rate T/C (%). T/C %=TRTV/CRTV×100% (TRTV: the RTV of the treatment group; CRTV: the RTV of negative control group; RTV=Vt/V0, where V0 is the tumor signal measured at the time of grouping and administration (i.e., day 0), and Vt is the tumor signal at every measurement). According to the guidelines of the Center for Drug Evaluation, NMPA, a T/C (%) of >40% denotes the absence of efficacy, while a T/C of <40% with P<0.05 denotes the presence of efficacy.

CK1α = target: T3, CK1α (Homo sapiens, UniProt P48729); experiment: Degradation of CK1α protein in HL-60 cells (Western blot); assay type: cell-based; details: 4 h
T3 construct: The whole cell lysate was prepared using a RIPA lysis buffer; endogenous in cells; host or cells: HL-60 cells
Description: as §2

T2 sequence (Q9UKT9 whole entry): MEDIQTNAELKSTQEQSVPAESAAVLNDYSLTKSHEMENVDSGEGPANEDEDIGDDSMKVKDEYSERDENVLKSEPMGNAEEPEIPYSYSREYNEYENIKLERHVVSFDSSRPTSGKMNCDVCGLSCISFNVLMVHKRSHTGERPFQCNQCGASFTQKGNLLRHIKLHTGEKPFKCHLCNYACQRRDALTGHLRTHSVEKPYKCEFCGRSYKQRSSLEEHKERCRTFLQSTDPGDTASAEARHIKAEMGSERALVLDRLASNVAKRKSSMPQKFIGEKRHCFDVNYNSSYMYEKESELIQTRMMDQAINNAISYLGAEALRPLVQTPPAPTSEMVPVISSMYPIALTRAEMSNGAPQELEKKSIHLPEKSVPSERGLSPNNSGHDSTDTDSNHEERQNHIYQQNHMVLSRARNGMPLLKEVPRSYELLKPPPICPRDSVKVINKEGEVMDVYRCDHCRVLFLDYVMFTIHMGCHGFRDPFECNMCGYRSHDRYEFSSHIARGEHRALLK
T3 sequence (P48729 whole entry): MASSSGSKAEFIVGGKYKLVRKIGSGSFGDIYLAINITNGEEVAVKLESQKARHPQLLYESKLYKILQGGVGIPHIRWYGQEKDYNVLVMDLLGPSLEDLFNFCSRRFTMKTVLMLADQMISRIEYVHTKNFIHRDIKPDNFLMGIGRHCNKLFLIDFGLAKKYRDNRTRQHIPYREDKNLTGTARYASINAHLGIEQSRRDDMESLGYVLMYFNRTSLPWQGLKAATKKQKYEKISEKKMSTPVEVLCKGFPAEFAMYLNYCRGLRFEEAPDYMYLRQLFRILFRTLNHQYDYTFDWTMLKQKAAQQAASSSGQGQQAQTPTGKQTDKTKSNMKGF
T1 sequence (Q13422 whole entry): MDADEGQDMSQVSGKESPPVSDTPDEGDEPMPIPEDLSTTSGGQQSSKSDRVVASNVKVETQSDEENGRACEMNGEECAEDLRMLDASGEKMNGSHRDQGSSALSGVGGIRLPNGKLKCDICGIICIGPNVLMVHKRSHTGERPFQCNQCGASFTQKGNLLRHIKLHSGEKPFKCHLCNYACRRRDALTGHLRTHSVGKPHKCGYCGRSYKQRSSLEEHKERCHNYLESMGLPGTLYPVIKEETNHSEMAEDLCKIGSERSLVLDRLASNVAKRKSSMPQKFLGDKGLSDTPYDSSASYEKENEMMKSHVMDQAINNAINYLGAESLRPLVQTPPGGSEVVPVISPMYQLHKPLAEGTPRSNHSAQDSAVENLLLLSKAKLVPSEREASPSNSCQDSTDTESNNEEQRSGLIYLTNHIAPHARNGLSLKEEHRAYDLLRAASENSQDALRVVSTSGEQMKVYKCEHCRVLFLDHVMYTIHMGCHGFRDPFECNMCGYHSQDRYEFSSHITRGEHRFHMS

SMILES | IKZF1 degradation (IKZF1; 10 nM) | IKZF1 degradation (IKZF1; 100 nM) | IKZF1 degradation (IKZF1; 1000 nM) | IKZF3 degradation (IKZF3; 10 nM) | IKZF3 degradation (IKZF3; 100 nM) | IKZF3 degradation (IKZF3; 1000 nM) | T/C (%) Day 3 (MV-4-11-Luc xenograft) [%] | T/C (%) Day 7 (MV-4-11-Luc xenograft) [%] | T/C (%) Day 10 (MV-4-11-Luc xenograft) [%] | T/C (%) Day 14 (MV-4-11-Luc xenograft) [%] | CK1α degradation (CK1α; 10 nM) | CK1α degradation (CK1α; 100 nM) | CK1α degradation (CK1α; 1000 nM) | other results
O=C1CCC(N2Cc3c(ccc(CNC(=O)c4ccc(Cl)cc4)c3F)C2=O)C(=O)N1 (stereo not shown) [FDAB-48] | B (B denotes a percentage of degradation less than 800% but not less than 500%) | A (A denotes a percentage of GSPT1 protein degradation not less than 8000) | A (A denotes a percentage of GSPT1 protein degradation not less than 8000) | C (C denotes a percentage of degradation less than 500% but not less than 250%) | B (B denotes a percentage of degradation less than 800% but not less than 500%) | A (A denotes a percentage of GSPT1 protein degradation not less than 8000) | 0.95 | 0.22 | 0.10 | 0.05 | D (D denotes a percentage of degradation less than 25%) | D (D denotes a percentage of degradation less than 25%) | D (D denotes a percentage of degradation less than 25%) | IC50 (NCI-H929 cells; NCI-H929, 72 h): 1 to 10 nM; IC50 (MV-4-11 cells; MV4-11, 72 h, read-out: Antiproliferative activity IC50): 10 to 100 nM; IC50 (MV-4-11 cells; MV4-11, read-out: IC50 against MV-4-11 cell proliferation): 10.8 nM; IC50 (MOLM-13 cells; MOLM-13, 72 h): 10 to 100 nM; IC50 (U937 cells; U-937, 72 h): 10 to 100 nM; IC50 (AML-2 cells): 100 to 1000 nM
Cc1ccc(C(=O)NCc2ccc3c(c2F)CN(C2CCC(=O)NC2=O)C3=O)c(F)c1 (stereo not shown) [FDAB-121] | B (B denotes a percentage of degradation less than 800% but not less than 500%) | A (A denotes a percentage of GSPT1 protein degradation not less than 8000) | A (A denotes a percentage of GSPT1 protein degradation not less than 8000) | D (D denotes a percentage of degradation less than 25%) | B (B denotes a percentage of degradation less than 800% but not less than 500%) | B (B denotes a percentage of degradation less than 800% but not less than 500%) | 0.32 | 0.06 | 0.02 | 0.00 | D (D denotes a percentage of degradation less than 25%) | D (D denotes a percentage of degradation less than 25%) | C (C denotes a percentage of degradation less than 500% but not less than 250%) | IC50 (NCI-H929 cells; NCI-H929 cells, 72 h): 1 to 10 nM; IC50 (MV-4-11 cells; MV4-11, MV-4-11 cells, 72 h, read-out: Antiproliferative activity IC50): 1 to 10 nM; IC50 (MOLM-13 cells; MOLM-13 cells, 72 h): 10 to 100 nM; IC50 (U937 cells; U-937, U937 cells, 72 h): 10 to 100 nM; IC50 (AML-2 cells; AML-2 cells): 10 to 100 nM
